Among the data in PubChem BioAssay (NCI) are GI50 and TGI values, retold here.

Values joined by “and” are separate entries in the source; they are usually repeats but may differ in a detail not shown here. Identical values can stand only once.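 96-well plates; 48 h exposure; 5 concentrations. Endpoints by linear interpolation between flanking doses. Not reached: highest tested concentration assigned. At the GI50, growth is halved. The concentration for full growth arrest is given as TGI.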 A value given as a limit tells only on which side of the number the result lay.

Test systems include A549 NSCLC; COLO 205 colon; DU-145 prostate; M14 melanoma; MDA-MB-435; NCI-H460 lung; NCI-H522 lung; SF-268 CNS; SF-539 CNS; U251 CNS.
Test in all cases: NCI tumour cell line growth inhibition, 48 h

Consider `C=C1C(=O)O[C@H]2[C@H]1CC/C(COC(=O)c1ccc(C#N)cc1)=C\CC[C@@]1(C)O[C@@H]21`, for which the GI50 in the test with A549 NSCLC was 6 µM; with COLO 205 colon it was 1.63 µM; with DU-145 prostate, 1.5 µM; in the test with M14 melanoma, 1.69 µM; in the test on MDA-MB-435 it was 1.96 µM; in the test with NCI-H460 lung it was 3.46 µM. In addition, the GI50 with NCI-H522 lung was 1.55 µM; in the test on SF-268 CNS it was 2.2 µM; in the test on SF-539 CNS, 1.64 µM; in the test on U251 CNS it was 2.86 µM. Further, the TGI is 20.5 µM in the test with A549 NSCLC; 3.81 µM in the test on COLO 205 colon; 2.83 µM in the test on DU-145 prostate; 3.64 µM with M14 melanoma; 4.53 µM with MDA-MB-435; 14.5 µM in the test with NCI-H460 lung. The TGI worked out at 3.35 µM in the test on NCI-H522 lung, 5.09 µM with SF-268 CNS, 3.28 µM with SF-539 CNS and 10.3 µM in the test on U251 CNS.

With `C=C(C)[C@@H]1CC[C@]2(COC3CCCCO3)CC[C@]3(C)[C@H](CC[C@@H]4[C@@]5(C)C=C(C=O)C(=O)C(C)(C)[C@@H]5CC[C@]43C)[C@@H]12` (stereo not given in full), the GI50 is 1.56 µM in the test on A549 NSCLC; 1.62 µM with COLO 205 colon; 1.57 µM with DU-145 prostate; 1.34 µM with M14 melanoma; 1.05 µM with MDA-MB-435; 2.02 µM in the test on NCI-H460 lung. The GI50 is 1.38 µM in the test on NCI-H522 lung, 1.34 µM with SF-268 CNS, 1.21 µM with SF-539 CNS and 1.18 µM in the test with U251 CNS. In addition, the TGI is 3.15 µM with A549 NSCLC; 3.48 µM in the test with COLO 205 colon; 2.92 µM in the test on DU-145 prostate; 3.01 µM in the test on M14 melanoma; 2.32 µM with MDA-MB-435; 4.22 µM with NCI-H460 lung. Besides, the TGI was determined as 2.86 µM in the test on NCI-H522 lung, 3.05 µM in the test on SF-268 CNS, 2.58 µM in the test with SF-539 CNS and 2.71 µM in the test with U251 CNS.

`CCN1C(=O)N(c2ccccc2)C2NN=c3s/c(=C4\C(=O)N(C(C)C)c5ccccc54)c(=O)n3C21` (stereo not given): the GI50 in the test on A549 NSCLC was 1.43 µM; in the test with COLO 205 colon, 0.54 µM; in the test with DU-145 prostate, 1.41 µM; with M14 melanoma, 0.979 µM; with MDA-MB-435, 0.283 µM; in the test with NCI-H460 lung, 1.16 µM. For the same compound, the GI50 with NCI-H522 lung was 1.1 µM; in the test on SF-268 CNS, 2.1 µM; in the test with SF-539 CNS it was 0.736 µM; with U251 CNS, 1.44 µM. The TGI is over 40.5 µM with A549 NSCLC; 24.5 µM in the test with COLO 205 colon; over 29.4 µM with DU-145 prostate; over 35.6 µM with M14 melanoma; 0.991 µM with MDA-MB-435; over 38.9 µM in the test with NCI-H460 lung. In addition, the TGI with NCI-H522 lung is over 77.9 µM; in the test with SF-268 CNS it was over 100 µM; in the test with SF-539 CNS, 2.24 µM; with U251 CNS it was over 51.6 µM.

As to `CSc1ccc(/C=C/c2ccnc3ccccc23)cc1`, the TGI in the test on A549 NSCLC was 25 µM; in the test with COLO 205 colon it was 27.5 µM; in the test on DU-145 prostate, 32.7 µM; in the test on M14 melanoma, 22.1 µM; in the test on MDA-MB-435, 12.5 µM; in the test on NCI-H460 lung, 27.3 µM. For the same compound, the TGI is 28.6 µM in the test with NCI-H522 lung, 66 µM in the test on SF-268 CNS, 32.7 µM in the test with SF-539 CNS and 25.4 µM with U251 CNS.

On to `Cc1ccc(S(=O)(=O)Cc2nc(-c3ccc(C(=O)NCc4cccnc4)cc3)oc2C)cc1`, for which the GI50 in the test on A549 NSCLC is over 21.5 µM; with COLO 205 colon it was 0.492 µM; in the test with DU-145 prostate, 0.0907 µM; in the test with M14 melanoma, 0.0699 µM; with MDA-MB-435 it was 0.054 µM; in the test on NCI-H460 lung, 0.843 µM. Also, the GI50 with NCI-H522 lung was 1.33 µM; in the test with SF-268 CNS, 19 µM; in the test on SF-539 CNS it was under 0.01 µM; with U251 CNS it was 1.01 µM. The TGI with A549 NSCLC was over 100 µM; with COLO 205 colon, over 100 µM; in the test on DU-145 prostate it was over 100 µM; with M14 melanoma it was over 100 µM; in the test with MDA-MB-435, 12 µM; in the test with NCI-H460 lung, over 100 µM. Also, the TGI with NCI-H522 lung was 27.7 µM; with SF-268 CNS, over 100 µM; in the test on SF-539 CNS it was over 35.5 µM; in the test with U251 CNS, over 76.7 µM.

For the compound `CS(=O)(=O)CCNCc1ccc(-c2ccc3ncnc(Nc4ccc(OCc5ccccc5)c(Cl)c4)c3c2)o1`, the GI50 was 7.18 µM in the test on A549 NSCLC; 4.05 µM in the test with COLO 205 colon; 7.91 µM in the test on DU-145 prostate; 4.82 µM with M14 melanoma; 4.47 µM in the test with MDA-MB-435; 6.07 µM in the test with NCI-H460 lung. Further, the GI50 in the test with NCI-H522 lung was 2.2 µM; in the test with SF-268 CNS, 6.52 µM; in the test with SF-539 CNS, 4.26 µM; in the test with U251 CNS it was 5.02 µM. Besides, the TGI with A549 NSCLC was over 25 µM; with COLO 205 colon, 9.67 µM; in the test with DU-145 prostate, over 25 µM; in the test on M14 melanoma, 10 µM; in the test with MDA-MB-435, 9.78 µM; with NCI-H460 lung, over 17.8 µM. Moreover, the TGI in the test with NCI-H522 lung was 6.79 µM; in the test on SF-268 CNS it was over 25 µM; in the test on SF-539 CNS, 9.2 µM; in the test on U251 CNS, over 15.8 µM.

As for `O=C(NCCCCCCCCNC(=O)c1cccc2ccccc12)c1cccc2ccccc12`, the TGI was over 100 µM in the test on A549 NSCLC; over 100 µM in the test on COLO 205 colon; over 100 µM in the test with DU-145 prostate; over 87 µM in the test with M14 melanoma; over 100 µM with MDA-MB-435; over 100 µM in the test on NCI-H460 lung. The TGI in the test with NCI-H522 lung was over 46.4 µM; with SF-268 CNS, over 81.8 µM; in the test with SF-539 CNS, 34 µM; in the test on U251 CNS it was 45.6 µM.

`Cc1c(NC(=O)OC[C@@H]2COCCN2)cn2ncnc(Nc3ccc4c(cnn4Cc4cccc(F)c4)c3)c12`: the GI50 in the test on A549 NSCLC was > 10 µM and 8.26 µM; in the test on COLO 205 colon, 4.75 µM and 5.07 µM; with DU-145 prostate, 9.5 µM and 4.26 µM; with M14 melanoma, 9.45 µM and 4.41 µM; in the test on MDA-MB-435, > 10 µM and 9.97 µM; in the test on NCI-H460 lung, > 10 µM and 6.57 µM. Besides, the GI50 in the test with NCI-H522 lung is > 10 µM and 2.16 µM; in the test with SF-268 CNS, > 10 µM and 7.18 µM; in the test on SF-539 CNS, > 10 µM and 11.3 µM; in the test with U251 CNS it was 7.5 µM and 5.16 µM. In addition, the TGI with A549 NSCLC is > 10 µM and 21.5 µM; in the test on COLO 205 colon it was > 10 µM and 16.9 µM; in the test with DU-145 prostate, > 10 µM and 20.6 µM; with M14 melanoma, > 10 µM and 16.3 µM; with MDA-MB-435, > 10 µM and 23 µM; in the test on NCI-H460 lung, > 10 µM and 24 µM. For the same compound, the TGI with NCI-H522 lung is > 10 µM and 17.4 µM; in the test with SF-268 CNS, > 10 µM and 24.5 µM; in the test on SF-539 CNS, > 10 µM and 25.2 µM; in the test on U251 CNS, > 10 µM and 18.6 µM.
